From patent publication US11001615B2, “Mutated tau protein fragment and use thereof” (ADEL INC., priority 2016, dated 2021)
Square brackets hold non-standard residues; d marks the D form. Ends that are not written are not given here. pT = C[C@@H](OP(=O)(O)O)[C@H](N)C(=O)O

Key:
Tau-P301L dementia mice [1] = experiment: Water maze test; format: in vivo; conditions: 5th day, platform removed; ranking after K280-ac
Experimental: (§1) JNPL3 mice expressing Tau-P301L mutant gene were purchased from Taconic, and back-crossed with C57bl/6 mice for five generations in the experimental animal room of the Asan Institute for Life Sciences. Then, the mice were raised under a specific pathogen free (SPE) condition. For active immunization, the mice were administered, for six months starting from three months after birth at intervals of two weeks, two weeks, four weeks, four weeks, five weeks, four weeks, and one week in this order, the four modified tau protein fragments prepared in Preparation Example 1 together with keyhole limpet hemocyanin (KLH) as a carrier and an aluminum adjuvant. At this time, administration was carried out through intraperitoneal injection (IP injection). The dementia mice which were actively immunized by administration of the K280-ac fragment were designated as Tau-P301L-K280-ac.
An underwater maze test was performed to evaluate a learning and memory ability of the mice. […] Specifically, the underwater maze test took a total of 5 days. The mice were trained for 4 days in a state where a platform and a visual cue for the platform location are placed.
The learning was conducted by filling a swimming pool (1.4 m in diameter, 45 cm in depth) having a platform with water (29±0.5° C.) to a depth of about 26.5 cm, and then 1.5 L of whole milk powder was added to make water cloudy so that the mice can remember the platform with the cue only. Then, the mice were adapted to freely swim for 60 seconds and allowed to rest on the platform for 1 minute. The experiment was performed over a total of 12 times with 4 sets at three different starting positions. At the end of each test, 30 seconds of break time was given. At the end of one set, 30 to 45 minutes of break time was given.
After 4 days of learning, the test was performed on the 5th day. In the experiment for evaluation, the platform was not placed, and the number of staying in the area where the platform has been placed was measured in order to identify whether the mice visit well the platform location using the cue only. The test time was set for the mice to arrive at the location where the platform had been placed within one minute. If the mice fail to arrive at the platform location within one minute, the mice were removed out of the swimming pool.

Tau-P301L dementia mice [2] = experiment: ELISA using plasma: antibody production against modified tau protein fragments; format: in vivo; conditions: ELISA using plasma after final administration; fragment with KLH and aluminum adjuvant, IP
Experimental: as §1
In order to identify whether antibodies against the four modified tau protein fragments prepared in Preparation Example 1 were produced, the respective modified tau protein fragments or the full-length tau protein was finally administered, and then ELISA was performed using plasma.

Substance | number of arrivals, ranking among fragments (Tau-P301L dementia mice [1]) | antibodies against the fragment produced (Tau-P301L dementia mice [2])
VQIVYK-ac: protein fragment having the 303rd to 316th amino acid sequence section of the tau protein in which the 306th to 311th amino acids are acetylated (GGSVQIVYKPVDLS; also: residues 306-311 (VQIVYK) acetylated; listed as Homo sapiens) | next highest increased number of arrivals | not well produced
Glu391: protein fragment having the 381st to 391st amino acid sequence section of the tau protein in which the C-terminus of the 391st amino acid is truncated (NAKAKTDHGAE) | next highest increased number of arrivals | well produced
pT231: protein fragment having the 226th to 236th amino acid sequence section of the tau protein in which the 231st amino acid is phosphorylated (VAVVR[pT]PPKSP) | lowest number of times to arrive at the platform | well produced
